# Reference: patent US5925730A, “GnRH antagonists” (Ferring BV, priority 1997, dated 1999)
# Non-standard residues stand in square brackets, D forms with d. Residues, ends and D or L forms follow the SMILES beside them. *: point of attachment. dPhe(4-NHCONH2) = NC(=O)Nc1ccc(C[C@@H](N)C(=O)O)cc1; Phe(4-NHCONH2) = NC(=O)Nc1ccc(C[C@H](N)C(=O)O)cc1; Dihydroorotyl(S) = O=C1C[C@@H](C(=O)*)NC(=O)N1; dPhe(4-NH2) = Nc1ccc(C[C@@H](N)C(=O)O)cc1; dPhe(4-Cl) = N[C@H](Cc1ccc(Cl)cc1)C(=O)O; Phe(4-NH2) = Nc1ccc(C[C@H](N)C(=O)O)cc1; d2Nal = N[C@H](Cc1ccc2ccccc2c1)C(=O)O; Lys(iPr) = CC(C)NCCCC[C@H](N)C(=O)O; d3Pal = N[C@H](Cc1cccnc1)C(=O)O
# What was measured:
# [1] = examination of injected rats for tolerance and gelling at the point of injection; format: in vivo; details: 50 μg per rat sc
# secretion of LH = experiment: in vivo rat LH suppression test (circulating LH levels in castrated male rats after sc injection); set-up: species or system castrated male Sprague-Dawley rats; details: 50 micrograms sc
# Experimental: The peptide is assayed in vivo to determine its effectiveness to suppress the secretion of LH in rats. Measurement of circulating LH levels in castrated male Sprague-Dawley rats treated subcutaneously with the peptide is carried out as reported in C. Rivier et al. Biol. Reproduc., 1983, 29, 374-378. The peptides are first dissolved at a concentration of 1.0 or 10 mg/ml in bacteriostatic water and then further diluted in 0.04 M phosphate buffer containing 0.1% BSA. Subsequent dilutions are made in phosphate buffer. The peptides are injected sc into 5 rats, and blood samples (300 μl) are collected under metotane anesthesia. Sera (50 μl) are tested for LH levels in duplicate using reagents provided by the National Pituitary and Hormone Distribution Program of the NIDDK.
# [2] = water solubility compared with Acyline; format: physicochemical
water solubility compared with Acyline [2],SMILES,gelling at the point of injection [1],tolerance of the peptide in injected rats [1],duration of bioactivity for the suppression of LH (rating in words) (secretion of LH),suppression of LH compared with Acyline at 96 hours / 4 days (after day 3) (secretion of LH; 96 hours),"effectiveness in suppression of LH compared with Acyline, day 1 through day 3 (secretion of LH; days 1-3)","effectiveness in suppression of LH compared with Acyline, first two days (secretion of LH; days 1-2)",suppression of LH compared with Acyline at days 3 and 4 (72 and 96 hours; after the first 2 days) (secretion of LH; days 3-4)
–,"CC(=O)N[C@H](Cc1ccc2ccccc2c1)C(=O)N[C@H](Cc1ccc(Cl)cc1)C(=O)N[C@H](Cc1cccnc1)C(=O)N[C@@H](CO)C(=O)N[C@@H](Cc1ccc(NC(=O)[C@@H]2CC(=O)NC(=O)N2)cc1)C(=O)N[C@H](Cc1ccc(NC(N)=O)cc1)C(=O)N[C@@H](CC(C)C)C(=O)N[C@@H](CCCCNC(C)C)C(=O)N1CCC[C@H]1C(=O)N[C@H](C)C(N)=O [Example 1, Ac-D-2Nal-(4Cl)D-Phe-D-3Pal-Ser-4Aph(hydroorotyl)-D-4Aph(carbamoyl)-Leu-Lys(isopropyl)-Pro-D-Ala-NH2] (Ac-[d2Nal][dPhe(4-Cl)][d3Pal]S[Phe(4-NH2)](Dihydroorotyl(S))[dPhe(4-NHCONH2)]L[Lys(iPr)]P[dA]-NH2)",no significant gelling,very well tolerated,–,–,–,–,–
more water soluble than Acyline,"CC(=O)Nc1ccc(C[C@H](NC(=O)[C@H](CO)NC(=O)[C@@H](Cc2cccnc2)NC(=O)[C@@H](Cc2ccc(Cl)cc2)NC(=O)[C@@H](Cc2ccc3ccccc3c2)NC(C)=O)C(=O)N[C@H](Cc2ccc(NC(N)=O)cc2)C(=O)N[C@@H](CC(C)C)C(=O)N[C@@H](CCCCNC(C)C)C(=O)N2CCC[C@H]2C(=O)N[C@H](C)C(N)=O)cc1 [Example 1P, Ac-β-D-2Nal-D-4Cpa-D-3Pal-Ser-4Aph(Ac)-D-4Aph(carbamoyl)-Leu-Lys(isopropyl)-Pro-D-Ala-NH2] (Ac-[d2Nal][dPhe(4-Cl)][d3Pal]S[Phe(4-NH2)](Ac)[dPhe(4-NHCONH2)]L[Lys(iPr)]P[dA]-NH2)",–,–,long duration,slightly superior to Acyline,substantially the same as Acyline,–,–
more water soluble than Acyline,"CC(=O)Nc1ccc(C[C@@H](NC(=O)[C@H](Cc2ccc(NC(N)=O)cc2)NC(=O)[C@H](CO)NC(=O)[C@@H](Cc2cccnc2)NC(=O)[C@@H](Cc2ccc(Cl)cc2)NC(=O)[C@@H](Cc2ccc3ccccc3c2)NC(C)=O)C(=O)N[C@@H](CC(C)C)C(=O)N[C@@H](CCCCNC(C)C)C(=O)N2CCC[C@H]2C(=O)N[C@H](C)C(N)=O)cc1 [Example 1Q, Ac-β-D-2Nal-D-4Cpa-D-3Pal-Ser-4Aph(carbamoyl)-D-4Aph(Ac)-Leu-Lys(isopropyl)-Pro-D-Ala-NH2] (Ac-[d2Nal][dPhe(4-Cl)][d3Pal]S[Phe(4-NHCONH2)][dPhe(4-NH2)](Ac)L[Lys(iPr)]P[dA]-NH2)",–,–,–,–,–,equal to about values of Acyline,not as effective as Acyline
